System: P12-Ichikawa
Test: cell viability relative to DMSO control; higher = less cytotoxic
Details: 48 h
How it was run: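 Library compounds in DMSO were pin-dosed in an 11-point threefold series (47 μM to 0.79 nM) onto leukemia cells in 1536-well plates (5 μl). Plates held 500 cells/well of NOMO1 or SEM or 1000 cells/well of P12-Ichikawa, each adapted for at least four passages in each medium. Luminescence was read with CellTiter-Glo One after 48 h at 37°C. Viability means the per-plate percentage relative to DMSO wells, using cell-free wells as background.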

[1] = HPLM + 10% dialyzed FBS, 0.000781 µM
[2] = HPLM + 10% dialyzed FBS, 0.00234 µM
[3] = HPLM + 10% dialyzed FBS, 0.00702 µM
[4] = HPLM + 10% dialyzed FBS, 0.0211 µM
[5] = HPLM + 10% dialyzed FBS, 0.0632 µM
[6] = HPLM + 10% dialyzed FBS, 0.19 µM
[7] = HPLM + 10% dialyzed FBS, 0.569 µM
[8] = HPLM + 10% dialyzed FBS, 1.71 µM
[9] = HPLM + 10% dialyzed FBS, 5.12 µM
[10] = HPLM + 10% dialyzed FBS, 15.4 µM
[11] = HPLM + 10% dialyzed FBS, 46.1 µM
[12] = RPMI 5 mM glucose + 10% FBS, 0.000781 µM
[13] = RPMI 5 mM glucose + 10% FBS, 0.00234 µM
[14] = RPMI 5 mM glucose + 10% FBS, 0.00702 µM
[15] = RPMI 5 mM glucose + 10% FBS, 0.0211 µM
[16] = RPMI 5 mM glucose + 10% FBS, 0.0632 µM
[17] = RPMI 5 mM glucose + 10% FBS, 0.19 µM
[18] = RPMI 5 mM glucose + 10% FBS, 0.569 µM
[19] = RPMI 5 mM glucose + 10% FBS, 1.71 µM
[20] = RPMI 5 mM glucose + 10% FBS, 5.12 µM
[21] = RPMI 5 mM glucose + 10% FBS, 15.4 µM
[22] = RPMI 5 mM glucose + 10% FBS, 46.1 µM
[23] = RPMI 5 mM glucose + 10% dialyzed FBS, 0.000781 µM
[24] = RPMI 5 mM glucose + 10% dialyzed FBS, 0.00234 µM
[25] = RPMI 5 mM glucose + 10% dialyzed FBS, 0.00702 µM
[26] = RPMI 5 mM glucose + 10% dialyzed FBS, 0.0211 µM
[27] = RPMI 5 mM glucose + 10% dialyzed FBS, 0.0632 µM
[28] = RPMI 5 mM glucose + 10% dialyzed FBS, 0.19 µM
[29] = RPMI 5 mM glucose + 10% dialyzed FBS, 0.569 µM
[30] = RPMI 5 mM glucose + 10% dialyzed FBS, 1.71 µM
[31] = RPMI 5 mM glucose + 10% dialyzed FBS, 5.12 µM
[32] = RPMI 5 mM glucose + 10% dialyzed FBS, 15.4 µM
[33] = RPMI 5 mM glucose + 10% dialyzed FBS, 46.1 µM

Compound	cell viability [1]	cell viability [2]	cell viability [3]	cell viability [4]	cell viability [5]	cell viability [6]	cell viability [7]	cell viability [8]	cell viability [9]	cell viability [10]	cell viability [11]	cell viability [12]	cell viability [13]	cell viability [14]	cell viability [15]	cell viability [16]	cell viability [17]	cell viability [18]	cell viability [19]	cell viability [20]	cell viability [21]	cell viability [22]	cell viability [23]	cell viability [24]	cell viability [25]	cell viability [26]	cell viability [27]	cell viability [28]	cell viability [29]	cell viability [30]	cell viability [31]	cell viability [32]	cell viability [33]
Cc1cnc(Nc2ccc(N3CCN(C)CC3)cc2)nc1Nc1cccc([S+](=O)([O-])NC(C)(C)C)c1	133%	104%	109%	121%	118%	109%	103%	90.8%	88.7%	10.6%	2.36%	112%	120%	119%	120%	124%	111%	117%	91.3%	80.2%	16.2%	7.55%	108%	115%	114%	113%	106%	107%	102%	92.7%	76.6%	48.4%	4.62%
Oc1ccc2ccccc2c1SSc1c(O)ccc2ccccc12	98.4%	100%	105%	108%	106%	109%	110%	109%	109%	105%	94.2%	105%	114%	106%	107%	101%	109%	116%	109%	106%	101%	62.2%	88.3%	98.9%	95.5%	109%	99.2%	104%	105%	103%	98.3%	94.3%	52.3%
Nc1ccc([S+](=O)([O-])Nc2ncccn2)cc1	118%	120%	124%	95.8%	128%	131%	126%	125%	125%	119%	126%	115%	114%	122%	74.2%	133%	118%	127%	126%	132%	133%	106%											
Cc1cnc(Nc2ccc(CN3CCOCC3)cc2)nc1Nc1cccc([S+](=O)([O-])NC(C)(C)C)c1	80%	81.1%	81.2%	82.7%	89.1%	80.3%	83.6%	77.3%	9.27%	3.06%	1.03%	81.2%	83.3%	83.8%	84.9%	87.7%	74.2%	67.9%	76.2%	22.9%	5.69%	3.76%	69.9%	84.2%	74.6%	81.3%	81%	72.6%	75%	71.6%	31.2%	6.47%	5.08%
COc1cc2ncnc(Nc3cccc(Cl)c3)c2cc1OC	112%	107%	97.3%	99.6%	89.2%	73%	68.3%	44.8%	46.1%	45.4%	3.51%	97.7%	99.1%	98.5%	107%	87.9%	66.8%	69.1%	32.7%	25.1%	22.9%	19%	111%	102%	109%	106%	90.8%	72.1%	69.4%	32%	25.1%	23%	15.7%
CC(C)(C)OC(=O)Nc1ccc(-c2cc(C(=O)NCCCCCCC(=O)NO)no2)cc1	90.9%	94.6%	92.3%	95.2%	93.3%	92.5%	92.8%	45.8%	40.7%	4.57%	4.67%	87.8%	85.6%	87%	88.1%	80.1%	80%	84.8%	32.5%	35.3%	3.1%	3.16%	88.4%	90.5%	83.7%	86.6%	82.6%	85.4%	83%	9.73%	7.46%	3.76%	3.52%
NC[C@H]1O[C@H](O[C@H]2[C@H](O)[C@@H](O[C@H]3O[C@H](CO)[C@@H](O)[C@H](N)[C@H]3O)[C@H](N)C[C@@H]2N)[C@H](N)C[C@@H]1O	112%	98.8%	110%	106%	117%	109%	106%	99.8%	110%	101%	96.6%	102%	111%	95.9%	116%	107%	106%	97.1%	85.9%	94%	98.5%	105%	110%	116%	117%	119%	112%	88.5%	79.7%	91.6%	91%	94.6%	117%
O=C(NCc1ccccc1)c1csc(Nc2ccncn2)n1	91%	95.5%	100%	110%	105%	108%	103%	85.2%	62.9%	5.82%	1.69%	94%	96.1%	92.9%	104%	106%	94.5%	104%	63.7%	37.6%	5.79%	2.56%	93.4%	101%	104%	112%	106%	97.2%	102%	80.6%	36%	6.99%	2.78%
Cn1cnc([N+](=O)[O-])c1Sc1ncnc2nc[nH]c12	95.4%	97%	98.4%	95.7%	102%	97.7%	96.5%	86%	36.2%	28.4%	29.2%	81.8%	88.5%	82.1%	88.5%	99.2%	95.1%	90.9%	79.9%	64.5%	28.3%	19.4%	88.9%	95.3%	98.1%	91%	97.2%	92.1%	88.5%	72.6%	63.2%	21.2%	13.7%
Cc1ccc(/C=N/NC(=O)c2ccccc2Oc2ccccc2)o1	95.5%	107%	91.4%	96.5%	100%	98.3%	94.6%	94.9%	89.7%	89.7%	79.4%	94%	99%	90.6%	88.5%	91.3%	90.8%	91.6%	92.2%	95.1%	85.8%	63.9%	85.2%	82.6%	87.7%	89.4%	90.3%	90.3%	88.8%	82.4%	82.3%	86.4%	78.3%
CCCCc1nc2cc(/C=C/C(=O)NO)ccc2n1CCN(CC)CC	93%	98.5%	103%	95.9%	95.7%	104%	90.1%	83.7%	3.65%	2.43%	4.19%	86.9%	96.3%	96.2%	83.5%	101%	91.3%	95.7%	85.7%	12.3%	2.22%	3.51%	95.7%	95.6%	93.5%	90.4%	100%	101%	98.6%	79.5%	17.6%	1.97%	3.51%
CC(C)CC(N(C)C)C1(c2ccc(Cl)cc2)CCC1 (stereo not given)	114%	120%	105%	113%	114%	111%	105%	86.3%	57.7%	54.9%	34%	109%	115%	113%	109%	106%	112%	94%	82.2%	51.4%	48.7%	49.1%	106%	114%	106%	107%	111%	110%	86.7%	76.2%	49.9%	45.3%	41.6%
NC\1=N\C(=O)N(\C=C1F)[C@H]2C[C@H](O)[C@@H](CO)O2	118%	127%	104%	101%	90.6%	65.2%	43.7%	45.4%	37%	27.9%	36.9%																						
COc1ccc2[nH]cc(CCNC(C)=O)c2c1												125%	125%	112%	121%	122%	123%	112%	111%	109%	108%	112%											
COC(=O)Nc1nc2ccc([S+]([O-])c3ccccc3)cc2[nH]1 (stereo not given)	109%	119%	111%	114%	111%	116%	122%	119%	95.5%	55.5%	86%	100%	115%	103%	119%	118%	120%	115%	135%	110%	74.4%	92.4%	118%	120%	117%	118%	124%	118%	128%	122%	117%	95%	97.4%
